The values that follow come from patent publication US9315520B2, “2-amino-6-methyl-4,4a,5,6-tetrahydropyrano[3,4-d][1,3]thiazin-8a(8H)-yl-1,3-thiazol-4-yl amides” (Pfizer Inc., priority 2014, dated 2016).

The assay has as its target BACE1 (Homo sapiens (Human), UniProt P56817). Kind of assay: BACE1 Cell-Free Assay (fluorescence polarization). Format: biochemical. The settings on record: read-out: BACE1 Cell-free Assay IC50. The source says: This assay measures the inhibition of the beta-secretase enzyme as it cleaves a non-native peptide.
A synthetic APP substrate that can be cleaved by beta-secretase having N-terminal biotin and made fluorescent by the covalent attachment of Oregon Green at the Cys residue is used to assay beta-secretase activity in the presence or absence of the inhibitory compounds. […] The BACE1 enzyme is affinity purified material from conditioned media of CHO-K1 cells that have been transfected with a soluble BACE construct (BACE1deltaTM96His). […] Plates are covered and incubated for 3 hours at 37° C. […] The activity of the beta-secretase enzyme is detected by changes in the fluorescence polarization that occur when the substrate is cleaved by the enzyme.
In general terms: Fluorescence polarisation rises when a labelled molecule tumbles more slowly, as on binding a larger partner.

Where [1] appears, read: geometric mean of 2-4 determinations unless otherwise indicated (b: ≧5; c: single determination).

Counter-ions that a name gives are not always drawn. Like-named read-outs stand apart in the source and are kept apart here.

BACE1, sequence (P56817 46-457): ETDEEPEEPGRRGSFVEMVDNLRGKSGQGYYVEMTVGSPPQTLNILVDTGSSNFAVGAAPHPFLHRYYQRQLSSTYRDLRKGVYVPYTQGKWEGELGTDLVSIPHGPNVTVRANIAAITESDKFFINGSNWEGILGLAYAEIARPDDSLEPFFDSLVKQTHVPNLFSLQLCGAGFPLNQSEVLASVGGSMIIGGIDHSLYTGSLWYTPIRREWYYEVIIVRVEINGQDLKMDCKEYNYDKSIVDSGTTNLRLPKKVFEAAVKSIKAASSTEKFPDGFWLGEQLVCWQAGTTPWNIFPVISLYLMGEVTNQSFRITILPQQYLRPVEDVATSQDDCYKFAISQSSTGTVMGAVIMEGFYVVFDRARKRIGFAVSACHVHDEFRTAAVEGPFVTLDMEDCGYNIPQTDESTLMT

Consider `C[C@H]1C[C@H]2CSC(N)=N[C@@]2(c2nc(NC(=O)c3coc(CF)n3)cs2)CO1` [Example 3, N-{2-[(4aR,6S,8aR)-2-amino-6-methyl-4,4a,5,6-tetrahydropyrano[3,4-d][1,3]thiazin-8a(8H)-yl]-1,3-thiazol-4-yl}-2-(fluoromethyl)-1,3-oxazole-4-carboxamide], for which, under setting [1], the IC50 (in general, the concentration at which inhibition is half-maximal) turned out to be 7 nM. Still for that read-out and setting: with `C[C@H]1C[C@H]2CSC(N)=N[C@@]2(c2nc(NC(=O)c3ccn(C(F)F)n3)cs2)CO1` [Example 4, N-{2-[(4aR,6S,8aR)-2-amino-6-methyl-4,4a,5,6-tetrahydropyrano[3,4-d][1,3]thiazin-8a(8H)-yl]-1,3-thiazol-4-yl}-1-(difluoromethyl)-1H-pyrazole-3-carboxamide] the figure was 9 nM; with `C[C@H]1C[C@H]2CSC(N)=N[C@@]2(c2nc(NC(=O)c3ccc(C#N)cn3)cs2)CO1` [Example 5, N-{2-[(4aR,6S,8aR)-2-amino-6-methyl-4,4a,5,6-tetrahydropyrano[3,4-d][1,3]thiazin-8a(8H)-yl]-1,3-thiazol-4-yl}-5-cyanopyridine-2-carboxamide], 22 nM; with `C[C@H]1C[C@H]2CSC(N)=N[C@@]2(c2nc(NC(=O)c3ccc(F)cn3)cs2)CO1` [Example 9, N-{2-[(4aR,6S,8aR)-2-amino-6-methyl-4,4a,5,6-tetrahydropyrano[3,4-d][1,3]thiazin-8a(8H)-yl]-1,3-thiazol-4-yl}-5-fluoropyridine-2-carboxamide], 189 nM. Consider `COc1cnc(C(=O)Nc2csc([C@]34CO[C@@H](C)C[C@H]3CSC(N)=N4)n2)cn1` [Example 10, N-{2-[(4aR,6S,8aR)-2-amino-6-methyl-4,4a,5,6-tetrahydropyrano[3,4-d][1,3]thiazin-8a(8H)-yl]-1,3-thiazol-4-yl}-5-methoxypyrazine-2-carboxamide], for which the IC50 under setting [1] amounted to 536 nM. Same read-out and setting: the figure for `C[C@H]1C[C@H]2CSC(N)=N[C@@]2(c2nc(NC(=O)c3cnc(CF)cn3)cs2)CO1` [Example 11, N-{2-[(4aR,6S,8aR)-2-amino-6-methyl-4,4a,5,6-tetrahydropyrano[3,4-d][1,3]thiazin-8a(8H)-yl]-1,3-thiazol-4-yl}-5-(fluoromethyl)pyrazine-2-carboxamide] is 315 nM; for `C[C@H]1C[C@H]2CSC(N)=N[C@@]2(c2nc(NC(=O)c3cnc(OCC(F)F)cn3)cs2)CO1` [Example 12, N-{2-[(4aR,6S,8aR)-2-amino-6-methyl-4,4a,5,6-tetrahydropyrano[3,4-d][1,3]thiazin-8a(8H)-yl]-1,3-thiazol-4-yl}-5-(2,2-difluoroethoxy)pyrazine-2-carboxamide] it is 280 nM. Take `Cc1cc(F)cnc1C(=O)Nc1csc([C@]23CO[C@@H](C)C[C@H]2CSC(N)=N3)n1` [Example 13, N-{2-[(4aR,6S,8aR)-2-amino-6-methyl-4,4a,5,6-tetrahydropyrano[3,4-d][1,3]thiazin-8a(8H)-yl]-1,3-thiazol-4-yl}-5-fluoro-3-methylpyridine-2-carboxamide, formate salt]: the IC50 turned out to be 90 nM.

For the compound `C[C@H]1C[C@H]2CSC(N)=N[C@@]2(c2nc(NC(=O)c3ccc(F)cc3)cs2)CO1` [Example 14, N-{2-[(4aR,6S,8aR)-2-amino-6-methyl-4,4a,5,6-tetrahydropyrano[3,4-d][1,3]thiazin-8a(8H)-yl]-1,3-thiazol-4-yl}-4-fluorobenzamide, formate salt], the IC50 stood at 866 nM.

In the case of `C[C@H]1C[C@H]2CSC(N)=N[C@@]2(c2nc(NC(=O)c3cnc(C(F)F)cn3)cs2)CO1` [Example 15, N-{2-[(4aR,6S,8aR)-2-amino-6-methyl-4,4a,5,6-tetrahydropyrano[3,4-d][1,3]thiazin-8a(8H)-yl]-1,3-thiazol-4-yl}-5-(difluoromethyl)pyrazine-2-carboxamide], the IC50 under setting [1] was 145 nM. For `C[C@H]1C[C@H]2CSC(N)=N[C@@]2(c2nc(NC(=O)c3cnc(C(F)(F)F)cn3)cs2)CO1` [Example 16, N-{2-[(4aR,6S,8aR)-2-amino-6-methyl-4,4a,5,6-tetrahydropyrano[3,4-d][1,3]thiazin-8a(8H)-yl]-1,3-thiazol-4-yl}-5-(trifluoromethyl)pyrazine-2-carboxamide, formate salt], the IC50 stood at 193 nM. As to `C[C@H]1C[C@H]2CSC(N)=N[C@@]2(c2nc(NC(=O)c3ccc(C(F)(F)F)cn3)cs2)CO1` [Example 17, N-{2-[(4aR,6S,8aR)-2-amino-6-methyl-4,4a,5,6-tetrahydropyrano[3,4-d][1,3]thiazin-8a(8H)-yl]-1,3-thiazol-4-yl}-5-(trifluoromethyl)pyridine-2-carboxamide], the concentration for half-maximal inhibition (IC50) under setting [1] is 54 nM. For `C[C@H]1C[C@H]2CSC(N)=N[C@@]2(c2nc(NC(=O)c3ncc(F)cc3F)cs2)CO1` [Example 18, N-{2-[(4aR,6S,8aR)-2-amino-6-methyl-4,4a,5,6-tetrahydropyrano[3,4-d][1,3]thiazin-8a(8H)-yl]-1,3-thiazol-4-yl}-3,5-difluoropyridine-2-carboxamide], the IC50 under setting [1] was found to be 153 nM. The same measure, in the same setting: with `COc1ccc(C(=O)Nc2csc([C@]34CO[C@@H](C)C[C@H]3CSC(N)=N4)n2)nc1` [Example 19, N-{2-[(4aR,6S,8aR)-2-amino-6-methyl-4,4a,5,6-tetrahydropyrano[3,4-d][1,3]thiazin-8a(8H)-yl]-1,3-thiazol-4-yl}-5-methoxypyridine-2-carboxamide] the figure was 259 nM; with `C[C@H]1C[C@H]2CSC(N)=N[C@@]2(c2nc(NC(=O)c3ccc(OC(F)(F)F)cn3)cs2)CO1` [Example 20, N-{2-[(4aR,6S,8aR)-2-amino-6-methyl-4,4a,5,6-tetrahydropyrano[3,4-d][1,3]thiazin-8a(8H)-yl]-1,3-thiazol-4-yl}-5-(trifluoromethoxy)pyridine-2-carboxamide], 108 nM; with `C[C@H]1C[C@H]2CSC(N)=N[C@@]2(c2nc(NC(=O)c3ccc(OC(F)F)cc3)cs2)CO1` [Example 21, N-{2-[(4aR,6S,8aR)-2-amino-6-methyl-4,4a,5,6-tetrahydropyrano[3,4-d][1,3]thiazin-8a(8H)-yl]-1,3-thiazol-4-yl}-4-(difluoromethoxy)benzamide], 106 nM. In the case of `CC#CCOc1cnc(C(=O)Nc2csc([C@]34CO[C@@H](C)C[C@H]3CSC(N)=N4)n2)cn1` [Example 22, N-{2-[(4aR,6S,8aR)-2-amino-6-methyl-4,4a,5,6-tetrahydropyrano[3,4-d][1,3]thiazin-8a(8H)-yl]-1,3-thiazol-4-yl}-5-(but-2-yn-1-yloxy)pyrazine-2-carboxamide], under setting [1], the IC50 was 13 nM. Same read-out and setting: the figure for `C[C@H]1C[C@H]2CSC(N)=N[C@@]2(c2nc(NC(=O)c3cc4ccccn4n3)cs2)CO1` [Example 23, N-{2-[(4aR,6S,8aR)-2-amino-6-methyl-4,4a,5,6-tetrahydropyrano[3,4-d][1,3]thiazin-8a(8H)-yl]-1,3-thiazol-4-yl}pyrazolo[1,5-a]pyridine-2-carboxamide] is 1000 nM; for `C[C@H]1C[C@H]2CSC(N)=N[C@@]2(c2nc(NC(=O)c3ccn(C)n3)cs2)CO1` [Example 24, N-{2-[(4aR,6S,8aR)-2-amino-6-methyl-4,4a,5,6-tetrahydropyrano[3,4-d][1,3]thiazin-8a(8H)-yl]-1,3-thiazol-4-yl}-1-methyl-1H-pyrazole-3-carboxamide] it is 81 nM.
